For experiment [1], the target named is T1, Dual specificity protein phosphatase 3 (Homo sapiens, UniProt P51452). Briefly: SAR VHR1 Fluorescent Assay for In Vitro dose response studies. [Related pubchem assays (depositor defined):AID1654, AID1661, AID1878, AID1992, AID2004, AID2070, AID2085]. It counts as functional.
For experiment [2], the target named is T2, Tyrosine-protein phosphatase non-receptor type 7 (Homo sapiens, UniProt P35236).
T2 sequence (P35236 whole entry): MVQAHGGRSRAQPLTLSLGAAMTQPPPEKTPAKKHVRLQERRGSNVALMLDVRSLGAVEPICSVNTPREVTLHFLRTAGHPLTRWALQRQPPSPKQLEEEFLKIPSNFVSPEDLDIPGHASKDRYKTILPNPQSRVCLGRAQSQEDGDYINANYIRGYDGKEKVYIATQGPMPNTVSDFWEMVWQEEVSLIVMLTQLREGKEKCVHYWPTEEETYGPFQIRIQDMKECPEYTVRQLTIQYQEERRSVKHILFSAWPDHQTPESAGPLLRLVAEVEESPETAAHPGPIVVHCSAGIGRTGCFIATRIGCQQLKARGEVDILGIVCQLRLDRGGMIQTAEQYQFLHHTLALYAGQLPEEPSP
The experiment is described as follows: redox-active compounds inhibiting HePTP phosphatase – biochemical, fluorescence, mechanism study (AID 2068). Format: functional.

In experiment [3] the target is Induced myeloid leukemia cell differentiation protein Mcl-1 (Homo sapiens, UniProt Q07820). Format: functional.
Sequence of Induced myeloid leukemia cell differentiation protein Mcl-1 (Q07820 whole entry): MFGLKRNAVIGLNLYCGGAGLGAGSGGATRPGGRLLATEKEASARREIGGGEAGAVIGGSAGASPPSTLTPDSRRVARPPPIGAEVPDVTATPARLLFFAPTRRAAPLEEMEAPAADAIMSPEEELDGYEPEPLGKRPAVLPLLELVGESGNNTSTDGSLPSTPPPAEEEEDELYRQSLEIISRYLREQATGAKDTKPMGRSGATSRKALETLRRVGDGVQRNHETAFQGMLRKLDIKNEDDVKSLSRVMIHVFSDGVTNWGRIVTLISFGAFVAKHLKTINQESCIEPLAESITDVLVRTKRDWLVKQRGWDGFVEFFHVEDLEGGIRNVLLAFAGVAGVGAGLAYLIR
The target of experiment [4] is Intestinal-type alkaline phosphatase (Mus musculus, UniProt P24822). The experiment is described as follows: PubChem AID 488785. Format: functional.
Sequence of Intestinal-type alkaline phosphatase (Mus musculus, UniProt P24822) (P24822 whole entry): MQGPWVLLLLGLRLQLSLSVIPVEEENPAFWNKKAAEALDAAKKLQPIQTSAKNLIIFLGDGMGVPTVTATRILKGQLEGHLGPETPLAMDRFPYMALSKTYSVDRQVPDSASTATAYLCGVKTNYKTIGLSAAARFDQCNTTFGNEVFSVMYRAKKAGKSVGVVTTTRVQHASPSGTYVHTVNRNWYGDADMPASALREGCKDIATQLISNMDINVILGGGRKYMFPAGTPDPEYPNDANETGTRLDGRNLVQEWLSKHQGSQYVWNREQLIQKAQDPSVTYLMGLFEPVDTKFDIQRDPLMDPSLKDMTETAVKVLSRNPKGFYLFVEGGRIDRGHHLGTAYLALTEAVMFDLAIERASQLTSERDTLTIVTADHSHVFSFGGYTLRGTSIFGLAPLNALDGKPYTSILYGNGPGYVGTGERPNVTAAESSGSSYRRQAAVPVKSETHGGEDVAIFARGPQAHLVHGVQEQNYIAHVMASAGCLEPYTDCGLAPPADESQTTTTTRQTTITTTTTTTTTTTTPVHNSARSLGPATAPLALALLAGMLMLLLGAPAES
The target of a further experiment is T3, Cytochrome P450 1A2 (Homo sapiens, UniProt P05177).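 Further: PubChem cytochrome P450 panel assay, CYP1A2 panel member.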
T3 sequence (P05177 whole entry): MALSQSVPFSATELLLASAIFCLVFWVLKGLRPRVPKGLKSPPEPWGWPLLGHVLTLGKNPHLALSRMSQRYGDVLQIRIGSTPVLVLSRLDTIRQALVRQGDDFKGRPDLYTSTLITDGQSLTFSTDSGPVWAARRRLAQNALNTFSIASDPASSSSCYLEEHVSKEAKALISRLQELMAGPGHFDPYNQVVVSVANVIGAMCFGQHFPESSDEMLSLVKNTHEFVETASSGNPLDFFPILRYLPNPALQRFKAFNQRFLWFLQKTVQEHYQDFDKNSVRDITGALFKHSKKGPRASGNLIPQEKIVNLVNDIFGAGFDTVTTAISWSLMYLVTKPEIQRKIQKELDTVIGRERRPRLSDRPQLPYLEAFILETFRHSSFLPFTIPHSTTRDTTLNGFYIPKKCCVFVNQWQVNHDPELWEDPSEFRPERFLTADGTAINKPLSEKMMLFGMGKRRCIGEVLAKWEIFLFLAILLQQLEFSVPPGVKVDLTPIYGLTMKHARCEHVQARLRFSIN

Experiment [5] addresses T4, Dual specificity protein phosphatase 6 (Rattus norvegicus, UniProt Q64346).
T4 sequence (Q64346 whole entry): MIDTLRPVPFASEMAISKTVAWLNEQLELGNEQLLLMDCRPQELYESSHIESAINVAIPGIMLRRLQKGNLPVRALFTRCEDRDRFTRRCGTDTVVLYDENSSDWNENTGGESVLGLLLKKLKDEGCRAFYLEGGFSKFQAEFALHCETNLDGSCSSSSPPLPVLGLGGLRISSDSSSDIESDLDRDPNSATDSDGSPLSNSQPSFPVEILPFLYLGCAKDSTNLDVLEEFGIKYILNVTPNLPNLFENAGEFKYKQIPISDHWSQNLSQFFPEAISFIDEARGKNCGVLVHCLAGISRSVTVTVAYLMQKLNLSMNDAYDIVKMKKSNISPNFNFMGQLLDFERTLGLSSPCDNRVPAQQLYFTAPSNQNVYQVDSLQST

The target in experiment [6] is T4, Dual specificity protein phosphatase 6. Format: functional.
Experiment [7] has as its target T2, Tyrosine-protein phosphatase non-receptor type 7. It counts as functional.
The target in the next experiment is Cytochrome P450 2C9 (Homo sapiens, UniProt P11712).
Sequence of Cytochrome P450 2C9 (P11712 whole entry): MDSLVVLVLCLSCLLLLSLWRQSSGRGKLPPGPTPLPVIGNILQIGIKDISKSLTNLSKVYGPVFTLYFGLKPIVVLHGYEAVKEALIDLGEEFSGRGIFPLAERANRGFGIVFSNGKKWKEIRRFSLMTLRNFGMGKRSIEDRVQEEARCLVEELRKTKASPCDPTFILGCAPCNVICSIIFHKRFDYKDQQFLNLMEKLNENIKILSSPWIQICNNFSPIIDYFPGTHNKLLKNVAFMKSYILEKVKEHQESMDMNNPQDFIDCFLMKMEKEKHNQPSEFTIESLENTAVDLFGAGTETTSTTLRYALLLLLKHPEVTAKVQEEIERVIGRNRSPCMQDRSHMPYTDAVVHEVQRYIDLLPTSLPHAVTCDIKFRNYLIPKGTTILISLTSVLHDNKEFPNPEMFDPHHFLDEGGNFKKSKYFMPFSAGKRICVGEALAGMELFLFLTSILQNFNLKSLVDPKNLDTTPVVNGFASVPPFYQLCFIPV
The target in experiment [8] is Glyceraldehyde-3-phosphate dehydrogenase (Homo sapiens, UniProt P04406).
Sequence of Glyceraldehyde-3-phosphate dehydrogenase (P04406 whole entry): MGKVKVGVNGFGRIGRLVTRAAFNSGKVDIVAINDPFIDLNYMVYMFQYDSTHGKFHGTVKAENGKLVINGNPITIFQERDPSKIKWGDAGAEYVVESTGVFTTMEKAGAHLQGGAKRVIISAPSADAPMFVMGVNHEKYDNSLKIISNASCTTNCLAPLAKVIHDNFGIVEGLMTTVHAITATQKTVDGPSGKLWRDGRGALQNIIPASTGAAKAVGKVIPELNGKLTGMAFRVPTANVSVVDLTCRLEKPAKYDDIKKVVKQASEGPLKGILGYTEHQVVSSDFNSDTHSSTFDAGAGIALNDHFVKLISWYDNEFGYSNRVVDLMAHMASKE
For experiment [9], the target named is Intestinal-type alkaline phosphatase (Homo sapiens, UniProt P09923). Briefly: inhibition of human intestinal alkaline phosphatase – biochemical, dose response (AID 488876). Format: functional.
Experiment [10] has as its target Beta-adrenergic receptor kinase 1 (Homo sapiens, UniProt P25098). The experiment is described as follows: aptamer displacement from bead-bound GRK2 – biochemical, cherry pick 1, bead flow cytometry, dose response (AID 504500). Background: Flow cytometry measures light scatter and fluorescence of single cells or particles in a stream.
The target of experiment [11] is T5, Alkaline phosphatase, tissue-nonspecific isozyme (Homo sapiens, UniProt P05186).
T5 sequence (P05186 whole entry): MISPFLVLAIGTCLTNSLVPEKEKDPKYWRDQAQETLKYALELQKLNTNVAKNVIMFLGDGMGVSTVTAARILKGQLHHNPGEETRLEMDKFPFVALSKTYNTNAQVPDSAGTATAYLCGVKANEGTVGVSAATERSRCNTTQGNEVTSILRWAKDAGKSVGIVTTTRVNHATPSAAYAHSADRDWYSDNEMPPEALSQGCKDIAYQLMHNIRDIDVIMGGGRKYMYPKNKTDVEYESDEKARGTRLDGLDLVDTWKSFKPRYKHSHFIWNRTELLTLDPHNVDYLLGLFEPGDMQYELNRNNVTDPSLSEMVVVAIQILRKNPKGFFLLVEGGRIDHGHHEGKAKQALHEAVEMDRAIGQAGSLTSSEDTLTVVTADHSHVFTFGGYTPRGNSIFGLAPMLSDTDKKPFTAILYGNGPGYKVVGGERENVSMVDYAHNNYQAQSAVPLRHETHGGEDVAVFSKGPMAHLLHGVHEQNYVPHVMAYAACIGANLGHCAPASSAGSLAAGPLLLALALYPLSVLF
The experiment is described as follows: TNAP enzyme inhibition by screening hits, dose response, selectivity assay for mouse IAP inhibitor project, biochemical, human TNAP, uHTS hits (AID 488906). Format: functional.

For experiment [12], the target named is T1, Dual specificity protein phosphatase 3. The experiment is described as follows: MOA VHR1 Fluorescent secondary assay for identification of redox-state modulating compounds. [Related pubchem assays (depositor defined):AID1654, AID1661, AID1878, AID1957].
A short description of experiment [13]: CCR5-tropic HIV-1 fusion blockers – cell-based, CCR5-tropic Env, dose response (AID 2279). It counts as functional.
Another experiment concerns the target DNA topoisomerase (Yersinia pestis, UniProt A0A2S9PM60). Briefly: Yersinia topoisomerase I cleavage product accumulation – biochemical, cherry-pick, dose response (AID 588525).
For experiment [14], the target named is Photoreceptor-specific nuclear receptor (Homo sapiens, UniProt Q9Y5X4). Format: functional.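 Further: potency for compounds that break the NR2E3 corepressor complex and count as activators.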
The target of experiment [15] is Peroxisome proliferator-activated receptor gamma/Nuclear receptor corepressor 2 (Homo sapiens, UniProt P37231+Q9Y618). It counts as functional.
The target of the next experiment is Phospholipase D1 (Homo sapiens, UniProt Q13393). The experiment is described as follows: cellular phospholipase D1 inhibition IC50 – cell-based, dose response (AID 602151).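 Further: cellular PLD1 assay in Calu-1 cells stimulated with PMA.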 Format: functional.
Sequence of Phospholipase D1 (Q13393 whole entry): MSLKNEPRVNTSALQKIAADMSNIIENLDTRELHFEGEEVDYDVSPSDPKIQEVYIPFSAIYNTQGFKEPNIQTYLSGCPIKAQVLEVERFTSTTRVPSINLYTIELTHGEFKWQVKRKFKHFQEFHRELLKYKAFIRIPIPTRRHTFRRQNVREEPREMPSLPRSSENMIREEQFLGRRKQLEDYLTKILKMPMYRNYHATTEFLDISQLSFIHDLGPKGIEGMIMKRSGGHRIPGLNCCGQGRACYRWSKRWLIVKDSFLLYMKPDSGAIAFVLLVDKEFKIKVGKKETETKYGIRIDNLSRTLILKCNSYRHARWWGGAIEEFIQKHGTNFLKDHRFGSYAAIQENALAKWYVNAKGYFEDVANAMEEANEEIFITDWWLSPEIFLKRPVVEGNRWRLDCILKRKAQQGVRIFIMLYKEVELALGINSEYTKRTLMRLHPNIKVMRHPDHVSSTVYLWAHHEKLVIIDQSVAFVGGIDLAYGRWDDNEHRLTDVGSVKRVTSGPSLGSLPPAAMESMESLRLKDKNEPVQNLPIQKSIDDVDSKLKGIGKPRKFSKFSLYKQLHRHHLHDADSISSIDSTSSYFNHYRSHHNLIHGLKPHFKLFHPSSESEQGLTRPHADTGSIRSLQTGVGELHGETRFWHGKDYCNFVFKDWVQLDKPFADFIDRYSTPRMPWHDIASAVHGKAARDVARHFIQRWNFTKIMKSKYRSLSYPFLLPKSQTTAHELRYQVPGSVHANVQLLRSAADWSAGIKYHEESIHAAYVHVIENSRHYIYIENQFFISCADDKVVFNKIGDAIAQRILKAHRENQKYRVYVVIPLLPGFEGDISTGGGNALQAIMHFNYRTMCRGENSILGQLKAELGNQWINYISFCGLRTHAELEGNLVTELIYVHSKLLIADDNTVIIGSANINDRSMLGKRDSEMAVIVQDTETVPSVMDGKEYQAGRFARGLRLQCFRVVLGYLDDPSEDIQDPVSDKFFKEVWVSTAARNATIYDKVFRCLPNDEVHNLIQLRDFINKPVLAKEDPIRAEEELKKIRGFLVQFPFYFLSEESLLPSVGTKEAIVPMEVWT
For another experiment, the target named is Phospholipase D2 (Homo sapiens, UniProt O14939). Briefly: cellular phospholipase D2 inhibition IC50 – cell-based, dose response (AID 602147).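 Further: cellular assay in HEK293 cells overexpressing GFP-tagged PLD2.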 It counts as functional.
A further experiment addresses Phospholipase A2 (Homo sapiens, UniProt P04054). It counts as functional.
The target of another experiment is Cysteine protease ATG4B (Homo sapiens, UniProt Q9Y4P1). It counts as functional.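 Further: Fluorescence-based dose-response confirmation assay measuring inhibition of ATG4B activity.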
Sequence of Cysteine protease ATG4B (Q9Y4P1 whole entry): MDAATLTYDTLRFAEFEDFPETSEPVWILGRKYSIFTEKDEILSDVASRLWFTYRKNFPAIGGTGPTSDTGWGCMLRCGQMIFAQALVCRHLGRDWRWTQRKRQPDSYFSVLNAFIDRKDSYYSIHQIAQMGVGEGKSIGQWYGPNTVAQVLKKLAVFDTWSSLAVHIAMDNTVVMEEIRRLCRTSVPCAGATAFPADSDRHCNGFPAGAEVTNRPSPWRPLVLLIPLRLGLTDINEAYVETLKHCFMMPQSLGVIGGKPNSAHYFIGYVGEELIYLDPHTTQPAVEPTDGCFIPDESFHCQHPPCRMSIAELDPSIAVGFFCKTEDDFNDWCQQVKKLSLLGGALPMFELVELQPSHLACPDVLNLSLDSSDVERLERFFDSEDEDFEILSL
A further experiment is described as follows: cells. Format: functional.

Calls of active or inactive are those of the source. A value given as a limit tells only on which side of the number the result lay.

T1 sequence (P51452 whole entry): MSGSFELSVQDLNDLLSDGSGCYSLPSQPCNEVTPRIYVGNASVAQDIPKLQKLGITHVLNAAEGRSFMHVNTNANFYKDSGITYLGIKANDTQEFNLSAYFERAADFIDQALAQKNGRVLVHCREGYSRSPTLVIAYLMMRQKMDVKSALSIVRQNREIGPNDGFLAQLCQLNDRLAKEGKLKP
Sequence of DNA topoisomerase (A0A2S9PM60 whole entry): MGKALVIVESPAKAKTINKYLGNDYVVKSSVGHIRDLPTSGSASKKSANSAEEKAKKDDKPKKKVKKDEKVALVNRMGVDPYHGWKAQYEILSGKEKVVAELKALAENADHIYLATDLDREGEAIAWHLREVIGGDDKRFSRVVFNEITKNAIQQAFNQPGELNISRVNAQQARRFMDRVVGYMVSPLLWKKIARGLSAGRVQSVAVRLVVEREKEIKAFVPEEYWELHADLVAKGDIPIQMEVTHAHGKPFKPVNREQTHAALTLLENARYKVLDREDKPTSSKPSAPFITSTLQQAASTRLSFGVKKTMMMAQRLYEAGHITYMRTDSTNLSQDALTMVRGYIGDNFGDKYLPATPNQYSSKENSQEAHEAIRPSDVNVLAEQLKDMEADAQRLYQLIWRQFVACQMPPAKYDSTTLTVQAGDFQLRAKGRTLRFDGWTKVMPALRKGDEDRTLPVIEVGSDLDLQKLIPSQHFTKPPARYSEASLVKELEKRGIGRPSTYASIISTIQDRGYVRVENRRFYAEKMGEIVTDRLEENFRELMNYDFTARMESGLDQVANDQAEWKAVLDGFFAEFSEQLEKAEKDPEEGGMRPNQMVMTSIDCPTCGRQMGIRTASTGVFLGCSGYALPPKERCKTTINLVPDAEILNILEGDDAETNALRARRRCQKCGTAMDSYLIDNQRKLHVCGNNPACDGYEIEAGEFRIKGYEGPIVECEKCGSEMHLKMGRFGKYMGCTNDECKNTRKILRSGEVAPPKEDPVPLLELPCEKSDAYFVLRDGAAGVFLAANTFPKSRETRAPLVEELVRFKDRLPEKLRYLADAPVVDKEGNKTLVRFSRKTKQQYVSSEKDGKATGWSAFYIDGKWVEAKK
Sequence of Beta-adrenergic receptor kinase 1 (P25098 whole entry): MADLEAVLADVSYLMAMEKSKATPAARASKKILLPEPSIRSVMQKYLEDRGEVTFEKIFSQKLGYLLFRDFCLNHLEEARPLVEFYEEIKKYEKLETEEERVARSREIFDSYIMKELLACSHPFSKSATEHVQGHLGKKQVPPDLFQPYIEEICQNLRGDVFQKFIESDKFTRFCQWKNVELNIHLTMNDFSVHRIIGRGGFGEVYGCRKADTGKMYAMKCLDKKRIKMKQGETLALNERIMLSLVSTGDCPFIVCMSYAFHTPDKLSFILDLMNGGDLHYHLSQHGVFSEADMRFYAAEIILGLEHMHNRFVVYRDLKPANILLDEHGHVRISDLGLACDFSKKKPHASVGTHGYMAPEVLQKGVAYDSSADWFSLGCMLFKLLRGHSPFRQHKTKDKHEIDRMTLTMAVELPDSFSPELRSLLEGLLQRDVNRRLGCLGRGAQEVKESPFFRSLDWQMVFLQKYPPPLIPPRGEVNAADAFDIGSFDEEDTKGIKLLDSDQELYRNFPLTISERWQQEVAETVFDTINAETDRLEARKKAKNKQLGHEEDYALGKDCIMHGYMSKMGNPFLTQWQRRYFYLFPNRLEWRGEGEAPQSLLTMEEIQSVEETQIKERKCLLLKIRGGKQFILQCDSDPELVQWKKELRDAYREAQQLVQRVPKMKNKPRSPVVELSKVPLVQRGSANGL

As for `O=C(O)c1ccccc1-c1ccc(/C=c2\sc3nc4cc(Br)cnc4n3c2=O)o1`, the half-inhibitory concentration (IC50) in [1] was 1.25 µM (active); in [2], 0.159 µM (active); in experiment [3], 3.32 µM (active); in [4], 6.36 µM (active); in experiment [5], 6.8 µM (active); in experiment [6], 4.92 µM (active). Besides, the half-inhibitory concentration (IC50) in experiment [7] is 1.26 µM (active); in [8], 2.31 µM (active); in experiment [9] it was > 100 µM (inactive); in experiment [11], 31.7 µM (active); in [12] it was 0.308 µM (active). Besides, the AC50 was 17.8 µM (inconclusive) on Cytochrome P450 1A2 and 20 µM (inconclusive) on Cytochrome P450 2C9. Moreover, the EC50 in experiment [10] was 2.39 µM (active).

`Cc1cc(N2C(=O)C(O)=C(C(=O)c3cc4ccccc4o3)C2c2cccc(Br)c2)no1` (stereo not drawn): the IC50 in experiment [13] was > 50 µM (active); in experiment [14], > 39.8 µM (not active); in experiment [15], 1.97 µM (active). Also, the concentration at half-maximal activity (AC50) at DNA topoisomerase is 3.24 µM (active).

With `C[C@@H](CN1CCC(n2c(=O)[nH]c3cc(I)ccc32)CC1)NC(=O)c1ccc(Cl)cc1`, the IC50 at Phospholipase D1 is 0.016 µM (active); at Phospholipase D2 it was 2.4 µM (active).

For the compound `O=[N+]([O-])c1cc2oc3c(c2c(/C=N/Cc2ccccc2)c1O)CCCC3`, the half-maximal inhibitory concentration (IC50) is 0.502 µM (active) on Phospholipase A2, 1.28 µM (active) at Cysteine protease ATG4B and 20.6 µM (active) in the experiment “cells”.

As usually defined, the IC50 is the concentration that gives 50% inhibition. The AC50 is the midpoint of the concentration-response curve, whichever way the signal moves. In general, EC50 refers to the concentration at which the effect is half-maximal.

For the origin of these results see ChEMBL document CHEMBL1201862, “PubChem BioAssay data set” (2004).
